Values joined by “and” are separate entries in the source; they are usually repeats but may differ in a detail not shown here. Equal values may be shown once.
System: 324938-238-R-J1-PDC complex spheroids viability
Experiment: Anticancer human tumor 324938-238-R-J1-PDC patient-derived bladder carcinoma cell line growth inhibition [CLK]
Conditions: for viability, T/C: stronger effect = lower value
In short: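 Multi-cell-type spheroids combined patient-derived tumor cells with HUVEC endothelial cells and human mesenchymal stem cells. Paired agents were dosed in half-log steps down from about clinical Cmax, or from 10 microM where Cmax was unknown.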

[1] = curve of first compound, second compound 0.0316 µM
[2] = curve of first compound, second compound 0.1 µM
[3] = curve of first compound, second compound 0.316 µM
[4] = curve of first compound, second compound 1 µM
[5] = curve of first compound, second compound 3.16 µM
[6] = curve of first compound, second compound 10 µM
[7] = second compound 0.0316 µM, first compound 0.0316 µM
[8] = second compound 0.0316 µM, first compound 0.1 µM
[9] = second compound 0.0316 µM, first compound 0.316 µM
[10] = second compound 0.0316 µM, first compound 1 µM
[11] = second compound 0.0316 µM, first compound 3.16 µM
[12] = second compound 0.0316 µM, first compound 10 µM
[13] = second compound 0.1 µM, first compound 0.0316 µM
[14] = second compound 0.1 µM, first compound 0.1 µM
[15] = second compound 0.1 µM, first compound 0.316 µM
[16] = second compound 0.1 µM, first compound 1 µM
[17] = second compound 0.1 µM, first compound 3.16 µM
[18] = second compound 0.1 µM, first compound 10 µM
[19] = second compound 0.316 µM, first compound 0.0316 µM
[20] = second compound 0.316 µM, first compound 0.1 µM
[21] = second compound 0.316 µM, first compound 0.316 µM
[22] = second compound 0.316 µM, first compound 1 µM
[23] = second compound 0.316 µM, first compound 3.16 µM
[24] = second compound 0.316 µM, first compound 10 µM
[25] = second compound 1 µM, first compound 0.0316 µM
[26] = second compound 1 µM, first compound 0.1 µM
[27] = second compound 1 µM, first compound 0.316 µM
[28] = second compound 1 µM, first compound 1 µM
[29] = second compound 1 µM, first compound 3.16 µM
[30] = second compound 1 µM, first compound 10 µM
[31] = second compound 3.16 µM, first compound 0.0316 µM
[32] = second compound 3.16 µM, first compound 0.1 µM
[33] = second compound 3.16 µM, first compound 0.316 µM
[34] = second compound 3.16 µM, first compound 1 µM
[35] = second compound 3.16 µM, first compound 3.16 µM
[36] = second compound 3.16 µM, first compound 10 µM
[37] = second compound 10 µM, first compound 0.0316 µM
[38] = second compound 10 µM, first compound 0.1 µM
[39] = second compound 10 µM, first compound 0.316 µM
[40] = second compound 10 µM, first compound 1 µM
[41] = second compound 10 µM, first compound 3.16 µM
[42] = second compound 10 µM, first compound 10 µM
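Note: viability read after seven days of drug exposure.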
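Throughout, for viability, T/C: 100% = DMSO vehicle control wells.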

## CC1COCCN1c1cc(C2(S(C)(=N)=O)CC2)nc(-c2ccnc3[nH]ccc23)n1 (configuration not stated) + CNC(=O)c1ccc(Nc2nc(OC3CCCC3)c3c(-c4ccc5nc(C)oc5c4)c[nH]c3n2)c(OC)c1
[1]
  IC50: 1390 nM
[2]
  IC50: < 31.6 nM
[3]
  IC50: < 31.6 nM
[4]
  IC50: < 31.6 nM
[5]
  IC50: < 31.6 nM
[6]
  IC50: < 31.6 nM
[7]
  viability, T/C: 90.4%
[8]
  viability, T/C: 89.2%
[9]
  viability, T/C: 71%
[10]
  viability, T/C: 60.7%
[11]
  viability, T/C: 31.1%
[12]
  viability, T/C: 15.5%
[13]
  viability, T/C: 30.8%
[14]
  viability, T/C: 29.2%
[15]
  viability, T/C: 26.2%
[16]
  viability, T/C: 27.4%
[17]
  viability, T/C: 24.1%
[18]
  viability, T/C: 17.1%
[19]
  viability, T/C: 18.6%
[20]
  viability, T/C: 19.4%
[21]
  viability, T/C: 17.2%
[22]
  viability, T/C: 17.4%
[23]
  viability, T/C: 12.9%
[24]
  viability, T/C: 10.9%
[25]
  viability, T/C: 14.7%
[26]
  viability, T/C: 15.8%
[27]
  viability, T/C: 16%
[28]
  viability, T/C: 12.6%
[29]
  viability, T/C: 13.9%
[30]
  viability, T/C: 7.97%
[31]
  viability, T/C: 16.2%
[32]
  viability, T/C: 15.1%
[33]
  viability, T/C: 16.9%
[34]
  viability, T/C: 15.6%
[35]
  viability, T/C: 13.1%
[36]
  viability, T/C: 7.09%
[37]
  viability, T/C: 16.6%
[38]
  viability, T/C: 15.1%
[39]
  viability, T/C: 16.7%
[40]
  viability, T/C: 15.2%
[41]
  viability, T/C: 14.5%
[42]
  viability, T/C: 8.22%

## CCN1CCN(Cc2ccc(Nc3ncc(F)c(-c4cc(F)c5nc(C)n(C(C)C)c5c4)n3)nc2)CC1
Compound 0.00316 µM
  viability, T/C: 74.7% and 81.3%
Compound 0.01 µM
  viability, T/C: 69.6% and 74.1%
Compound 0.0316 µM
  viability, T/C: 60% and 54.8%
Compound 0.1 µM
  viability, T/C: 41.8% and 48.6%
Compound 0.316 µM
  viability, T/C: 37% and 36.6%
Compound 1 µM
  viability, T/C: 36.5% and 46.5%
Curve of compound
  IC50: 59.4 nM and 60.2 nM

## CC(CO)NC(=O)c1cc(-c2ccc(Cl)cc2)nn(-c2cnn(C)c2)c1=O (configuration not stated) + CN1CCN(c2cc(C(=O)Nc3cc4cc(-c5cnn(C)c5)ccc4cn3)ccn2)CC1
[1]
  IC50: > 10000 nM
[2]
  IC50: 4990 nM
[3]
  IC50: < 31.6 nM
[4]
  IC50: < 31.6 nM
[5]
  IC50: < 31.6 nM
[6]
  IC50: < 31.6 nM
[7]
  viability, T/C: 84.4%
[8]
  viability, T/C: 92.8%
[9]
  viability, T/C: 83.5%
[10]
  viability, T/C: 81%
[11]
  viability, T/C: 63.6%
[12]
  viability, T/C: 50.9%
[13]
  viability, T/C: 60.7%
[14]
  viability, T/C: 62.8%
[15]
  viability, T/C: 63.3%
[16]
  viability, T/C: 55.7%
[17]
  viability, T/C: 57.3%
[18]
  viability, T/C: 41.3%
[19]
  viability, T/C: 23.5%
[20]
  viability, T/C: 25.9%
[21]
  viability, T/C: 25.3%
[22]
  viability, T/C: 25.8%
[23]
  viability, T/C: 26.5%
[24]
  viability, T/C: 21.4%
[25]
  viability, T/C: 1.59%
[26]
  viability, T/C: 1.8%
[27]
  viability, T/C: 1.38%
[28]
  viability, T/C: 1.23%
[29]
  viability, T/C: 1.2%
[30]
  viability, T/C: 1.04%
[31]
  viability, T/C: 0.16%
[32]
  viability, T/C: 0.21%
[33]
  viability, T/C: 0.21%
[34]
  viability, T/C: 0.15%
[35]
  viability, T/C: 0.25%
[36]
  viability, T/C: 0.67%
[37]
  viability, T/C: 0.13%
[38]
  viability, T/C: 0.19%
[39]
  viability, T/C: 0.25%
[40]
  viability, T/C: 0.2%
[41]
  viability, T/C: 0.18%
[42]
  viability, T/C: 0.22%

## CC(=O)O[C@H]1C(=O)[C@@]2(C)[C@H]([C@H](OC(=O)c3ccccc3)[C@]3(O)C[C@H](OC(=O)[C@H](O)[C@@H](NC(=O)c4ccccc4)c4ccccc4)C(C)=C1C3(C)C)[C@]1(OC(C)=O)CO[C@@H]1C[C@@H]2O + CNC(=O)c1ccc(Nc2nc(OC3CCCC3)c3c(-c4ccc5nc(C)oc5c4)c[nH]c3n2)c(OC)c1
[1]
  IC50: < 31.6 nM
[2]
  IC50: < 31.6 nM
[3]
  IC50: < 31.6 nM
[4]
  IC50: < 31.6 nM
[5]
  IC50: < 31.6 nM
[6]
  IC50: < 31.6 nM
[7]
  viability, T/C: 14.3%
[8]
  viability, T/C: 15.1%
[9]
  viability, T/C: 13.8%
[10]
  viability, T/C: 14.1%
[11]
  viability, T/C: 17.1%
[12]
  viability, T/C: 22%
[13]
  viability, T/C: 19.8%
[14]
  viability, T/C: 17.3%
[15]
  viability, T/C: 22.2%
[16]
  viability, T/C: 21.9%
[17]
  viability, T/C: 27.4%
[18]
  viability, T/C: 35.1%
[19]
  viability, T/C: 16.9%
[20]
  viability, T/C: 17.5%
[21]
  viability, T/C: 26.2%
[22]
  viability, T/C: 27.8%
[23]
  viability, T/C: 35.2%
[24]
  viability, T/C: 37%
[25]
  viability, T/C: 17.1%
[26]
  viability, T/C: 17.7%
[27]
  viability, T/C: 23.9%
[28]
  viability, T/C: 24.2%
[29]
  viability, T/C: 31.9%
[30]
  viability, T/C: 28.6%
[31]
  viability, T/C: 16.6%
[32]
  viability, T/C: 18.2%
[33]
  viability, T/C: 20.1%
[34]
  viability, T/C: 24.6%
[35]
  viability, T/C: 27.2%
[36]
  viability, T/C: 27.2%
[37]
  viability, T/C: 16.9%
[38]
  viability, T/C: 18.1%
[39]
  viability, T/C: 20.6%
[40]
  viability, T/C: 23.5%
[41]
  viability, T/C: 25.1%
[42]
  viability, T/C: 25.6%

## COc1ccc([C@@H](O)c2cc(-c3ncnc4cc(N5CCOCC5)ccc34)c(F)cc2Cl)nn1 + CNC(=O)c1ccc(Nc2nc(OC3CCCC3)c3c(-c4ccc5nc(C)oc5c4)c[nH]c3n2)c(OC)c1
[1]
  IC50: 3770 nM
[2]
  IC50: < 31.6 nM
[3]
  IC50: < 31.6 nM
[4]
  IC50: < 31.6 nM
[5]
  IC50: < 31.6 nM
[6]
  IC50: < 31.6 nM
[7]
  viability, T/C: 86.8%
[8]
  viability, T/C: 76.4%
[9]
  viability, T/C: 70.3%
[10]
  viability, T/C: 63.5%
[11]
  viability, T/C: 56.5%
[12]
  viability, T/C: 35.9%
[13]
  viability, T/C: 27.6%
[14]
  viability, T/C: 26.3%
[15]
  viability, T/C: 22.9%
[16]
  viability, T/C: 28%
[17]
  viability, T/C: 29%
[18]
  viability, T/C: 22.7%
[19]
  viability, T/C: 18.5%
[20]
  viability, T/C: 20.5%
[21]
  viability, T/C: 17.9%
[22]
  viability, T/C: 16.5%
[23]
  viability, T/C: 14.6%
[24]
  viability, T/C: 16.1%
[25]
  viability, T/C: 16%
[26]
  viability, T/C: 14.5%
[27]
  viability, T/C: 16%
[28]
  viability, T/C: 14.8%
[29]
  viability, T/C: 12.9%
[30]
  viability, T/C: 11.2%
[31]
  viability, T/C: 18.1%
[32]
  viability, T/C: 14.2%
[33]
  viability, T/C: 16.2%
[34]
  viability, T/C: 14.7%
[35]
  viability, T/C: 14.9%
[36]
  viability, T/C: 9.35%
[37]
  viability, T/C: 15.6%
[38]
  viability, T/C: 16.7%
[39]
  viability, T/C: 16.9%
[40]
  viability, T/C: 16.8%
[41]
  viability, T/C: 11.1%
[42]
  viability, T/C: 12.1%

## C#Cc1c(F)ccc2cc(O)cc(-c3ncc4c(N5CC6CCC(C5)N6)nc(OCC56CCCN5CC(F)C6)nc4c3F)c12 (configuration not stated) + CNC(=O)c1ccc(Nc2nc(OC3CCCC3)c3c(-c4ccc5nc(C)oc5c4)c[nH]c3n2)c(OC)c1
[1]
  IC50: 4700 nM
[2]
  IC50: < 31.6 nM
[3]
  IC50: < 31.6 nM
[4]
  IC50: < 31.6 nM
[5]
  IC50: < 31.6 nM
[6]
  IC50: < 31.6 nM
[7]
  viability, T/C: 73.7%
[8]
  viability, T/C: 87.6%
[9]
  viability, T/C: 71.8%
[10]
  viability, T/C: 69.6%
[11]
  viability, T/C: 57.8%
[12]
  viability, T/C: 35.7%
[13]
  viability, T/C: 29.6%
[14]
  viability, T/C: 29.6%
[15]
  viability, T/C: 21.5%
[16]
  viability, T/C: 22.8%
[17]
  viability, T/C: 20.5%
[18]
  viability, T/C: 18.6%
[19]
  viability, T/C: 20.1%
[20]
  viability, T/C: 18.9%
[21]
  viability, T/C: 14.5%
[22]
  viability, T/C: 16.9%
[23]
  viability, T/C: 12.7%
[24]
  viability, T/C: 14.8%
[25]
  viability, T/C: 14.8%
[26]
  viability, T/C: 14.9%
[27]
  viability, T/C: 13.8%
[28]
  viability, T/C: 15.1%
[29]
  viability, T/C: 14.8%
[30]
  viability, T/C: 15.6%
[31]
  viability, T/C: 13.5%
[32]
  viability, T/C: 16.4%
[33]
  viability, T/C: 14.8%
[34]
  viability, T/C: 16.8%
[35]
  viability, T/C: 12.4%
[36]
  viability, T/C: 12.4%
[37]
  viability, T/C: 15.9%
[38]
  viability, T/C: 18%
[39]
  viability, T/C: 16.2%
[40]
  viability, T/C: 16.8%
[41]
  viability, T/C: 16.2%
[42]
  viability, T/C: 11.5%
